This passage reports IC50 results from US20210198277A1, “AMINE-SUBSTITUTED ARYL OR HETEROARYL COMPOUNDS” (Epizyme, Inc., priority 2016, published 2021).

A word on the IC50: it is the concentration at which inhibition is half-maximal.

Structures are written as SMILES.

In this assay the target is T1, EHMT1 (Homo sapiens, UniProt Q9H9B1).
T1 sequence (Q9H9B1 1-1298): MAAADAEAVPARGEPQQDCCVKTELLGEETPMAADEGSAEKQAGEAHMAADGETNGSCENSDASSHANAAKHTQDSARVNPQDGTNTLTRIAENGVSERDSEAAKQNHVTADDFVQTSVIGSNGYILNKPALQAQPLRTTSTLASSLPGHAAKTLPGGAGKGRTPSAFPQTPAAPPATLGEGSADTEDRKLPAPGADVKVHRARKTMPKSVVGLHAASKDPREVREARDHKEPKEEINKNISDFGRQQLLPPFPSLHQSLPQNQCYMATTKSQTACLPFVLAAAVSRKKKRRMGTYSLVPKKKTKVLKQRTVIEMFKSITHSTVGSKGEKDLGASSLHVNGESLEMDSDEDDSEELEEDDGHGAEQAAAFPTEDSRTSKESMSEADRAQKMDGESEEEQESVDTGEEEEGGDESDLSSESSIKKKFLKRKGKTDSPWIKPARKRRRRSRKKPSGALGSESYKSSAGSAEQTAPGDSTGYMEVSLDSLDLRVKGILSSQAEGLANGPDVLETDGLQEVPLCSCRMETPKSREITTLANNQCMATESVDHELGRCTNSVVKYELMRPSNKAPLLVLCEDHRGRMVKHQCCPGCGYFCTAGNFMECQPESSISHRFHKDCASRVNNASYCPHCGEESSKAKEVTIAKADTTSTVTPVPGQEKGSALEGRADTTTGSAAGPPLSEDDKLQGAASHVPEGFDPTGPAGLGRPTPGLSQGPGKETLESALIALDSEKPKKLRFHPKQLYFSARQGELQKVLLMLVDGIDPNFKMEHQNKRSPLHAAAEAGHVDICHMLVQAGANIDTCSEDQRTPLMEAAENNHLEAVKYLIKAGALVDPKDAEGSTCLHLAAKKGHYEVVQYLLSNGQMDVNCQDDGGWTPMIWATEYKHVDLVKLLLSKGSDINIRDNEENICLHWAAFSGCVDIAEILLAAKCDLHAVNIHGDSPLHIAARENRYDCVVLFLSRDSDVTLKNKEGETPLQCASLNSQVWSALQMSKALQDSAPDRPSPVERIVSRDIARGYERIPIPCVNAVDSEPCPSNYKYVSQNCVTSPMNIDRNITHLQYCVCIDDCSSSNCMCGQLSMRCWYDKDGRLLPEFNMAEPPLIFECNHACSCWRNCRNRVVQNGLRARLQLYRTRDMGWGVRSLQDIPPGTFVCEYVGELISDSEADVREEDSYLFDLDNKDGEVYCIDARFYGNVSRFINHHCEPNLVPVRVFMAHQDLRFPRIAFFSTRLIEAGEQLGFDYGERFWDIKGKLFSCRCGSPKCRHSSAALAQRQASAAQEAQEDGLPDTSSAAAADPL
Nature of the assay: EHMT1 enzyme assay on peptide substrate (EHMT1 PEP). Type of assay: biochemical. Conditions: read-out: EHMT1 PEP (IC50 μM).

Consider `COc1cc(NC2CCCNC2)ccc1OCCCN1CCCC1` (stereo not shown) [Compound 578], for which the IC50 is 1 to 10 µM.

`CN1CCC(COc2cnc(NCC3CCOCC3)nc2)C1` (stereo not shown) [Compound 553]: the IC50 is greater than 10 µM.

Consider `CCN1CC(COc2cc(Nc3nccc4[nH]ccc34)ncc2OC)C1` [Compound 564], for which the IC50 was less than 0.1 µM.

As for `CNc1ccnc(NC2(C)CCCNC2)n1` (stereo not shown) [Compound 546, N^4-methyl-N^2-(3-methylpiperidin-3-yl)pyrimidine-2,4-diamine], the IC50 is greater than 10 µM.

As for `COc1ccc(Nc2nccc3[nH]ncc23)cc1OCCCN1CCCC1` [Compound 582], the IC50 was greater than 10 µM.

Consider `CNc1ccnc(NC2CCNCC2)n1` [Compound 542, N^4-methyl-N^2-(piperidin-4-yl)pyrimidine-2,4-diamine], for which the IC50 is greater than 10 µM.

With `CCN1CC(COc2cc(Nc3cccc4nncn34)ncc2OC)C1` [Compound 584], the IC50 was greater than 10 µM.

As to `COc1cnc(Nc2cccn3ccnc23)cc1OCCCN1CCCC1` [Compound 586], the IC50 fell in the range of 1 to 10 µM.

Regarding `CN1CCC(COc2cnc(NC3CCNCC3)nc2)C1` (stereo not shown) [Compound 555], the concentration for half-maximal inhibition (IC50) was greater than 10 µM.

`COc1cnc(Nc2cccc3nccn23)cc1OCCCN1CCCC1` [Compound 585]: the IC50 lay within 1 to 10 µM.

Regarding `COc1cnc(Nc2ccnc3[nH]ncc23)cc1OCCCN1CCCC1` [Compound 583], the IC50 is 1 to 10 µM.

Take `CNc1cc(C)nc(Nc2ccc(OC)c(OCCCN3CC4(CC4)C3)c2)n1` [Compound 574]: the IC50 is 1 to 10 µM.

Regarding `CCc1cc(NC)nc(Nc2cnc(OC)c(OC[C@@H]3CCN(CC)C3)c2)n1` [Compound 601], the IC50 was less than 0.1 µM.

Consider `COc1ccc(NC2CCNCC2)cc1OCCCN1CCCC1` [Compound 572], for which the IC50 was greater than 10 µM.

Turning to `COc1ncc(Nc2nc(C)cc(NCC3CCOCC3)n2)cc1OC[C@@H]1CCN(C2CCC2)C1` [Compound 595], the IC50 was in the range of 0.1 to 1 µM.

On to `CNc1cc(C)nc(Nc2ccc(OC)c(OC[C@@H]3CCN(C4CCC4)C3)c2)n1` [Compound 563], for which the IC50 is less than 0.1 µM.

On to `c1nc(NC2CCOCC2)ncc1OCC1CCN(C2CC2)C1` (stereo not shown) [Compound 557], for which the IC50 is greater than 10 µM.

Turning to `COc1ncc(Nc2nc(C)cc(NCC3CCOCC3)n2)cc1OC[C@@H]1CCN(C(C)C)C1` [Compound 592], the IC50 was 0.1 to 1 µM.

Take `CCCCN1CCCC(C)(Nc2nccc(NC)n2)C1` (stereo not shown) [Compound 549, N^2-(1-butyl-3-methylpiperidin-3-yl)-N^4-methylpyrimidine-2,4-diamine]: the 50% inhibitory concentration (IC50) was greater than 10 µM.

On to `CNc1cc(C)nc(Nc2ccc(OC)c(OCCCN(C)C3CCC3)c2)n1` [Compound 551, N^2-(3-(3-(cyclobutyl(methyl)amino)propoxy)-4-methoxyphenyl)-N^4,6-dimethylpyrimidine-2,4-diamine], for which the half-maximal inhibitory concentration (IC50) was 0.1 to 1 µM.

As for `COc1cnc(Nc2cccc3cncn23)cc1OCCCN1CCCC1` [Compound 589], the IC50 is greater than 10 µM.

On to `CNc1ccnc(Nc2cc(OCCCN3CCCC3)c3cn[nH]c3c2)n1` [Compound 538, N^4-methyl-N^2-(4-(3-(pyrrolidin-1-yl)propoxy)-1H-indazol-6-yl)pyrimidine-2,4-diamine], for which the IC50 was 0.1 to 1 µM.

For the compound `CNc1cc(C)nc(Nc2ccc(OC)c(OCC3CN(C4CCOC4)C3)c2)n1` (stereo not shown) [Compound 580], the IC50 is greater than 10 µM.

In the case of `CCN1CC[C@@H](COc2cc(Nc3nc(C)cc(NC(C)C)n3)ccc2OC)C1` [Compound 602], the IC50 lay within 0.1 to 1 µM.

As to `CC(C)N1CC(COc2cnc(NC3CCNCC3)nc2)C1` [Compound 588], the IC50 was greater than 10 µM.

For the compound `CNc1cc(C)nc(Nc2ccc(OC)c(OCC3CN(C(C)C)C3)c2)n1` [Compound 559], the IC50 is less than 0.1 µM.

Regarding `c1nc(NC2CCNCC2)ncc1OCC1CCN(C2CC2)C1` (stereo not shown) [Compound 556], the IC50 is greater than 10 µM.

For the compound `CCN1CC(COc2cc(Nc3cc(NC)cc(C)n3)cnc2OC)C1` [Compound 569], the IC50 was less than 0.1 µM.

On to `CN1CCC(COc2ccc(NC3CCNCC3)nc2)C1` (stereo not shown) [Compound 554], for which the IC50 was greater than 10 µM.

Consider `COc1ncc(Nc2nc(C)cc(NC(C)C)n2)cc1OCCCN1CCCC1` [Compound 593], for which the IC50 lay in the range of 0.1 to 1 µM.

As for `COc1cc(Nc2nc(C)cc3[nH]ncc23)ncc1OCCCN1CCCC1` [Compound 565], the IC50 was 1 to 10 µM.

As for `CCN1CC[C@@H](COc2cc(Nc3nc(C)cc(NC)n3)ccc2OC)C1` [Compound 571], the IC50 was less than 0.1 µM.

As for `CCCC1(Nc2nccc(NC)n2)CCNCC1` [Compound 545], the IC50 was greater than 10 µM.

Regarding `COc1cnc(Nc2cccc3[nH]ncc23)cc1OCCCN1CCCC1` [Compound 581], the IC50 was greater than 10 µM.

`CNc1ccnc(Nc2cc(OCCCN3CCCC3)c3[nH]ncc3c2)n1` [Compound 539]: the IC50 is greater than 10 µM.

For `COc1ccc(Nc2nc(C)cc(NC(C)C)n2)cc1OCCCN1CCCC1` [Compound 603], the IC50 is less than 0.1 µM.

`COc1ccc(NC2CCCNC2)cc1OCCCN1CCCC1` (stereo not shown) [Compound 573]: the IC50 was 1 to 10 µM.

With `C/C=C/C(=O)Nc1cc(OCCCN2CCCC2)c(OC)cn1` [Compound 597], the IC50 was greater than 10 µM.

On to `CNc1cc(C)nc(Nc2ccc(OC)c(OC[C@@H]3CCN(C4(C)CC4)C3)c2)n1` [Compound 568], for which the IC50 was less than 0.1 µM.

As to `CCN1CC(COc2cc(Nc3cc(NC)nc(C)c3F)ncc2OC)C1` [Compound 567], the IC50 fell in the range of 1 to 10 µM.

In the case of `COc1ncc(Nc2nc(C)cc(NCC3CCOCC3)n2)cc1OCCCN1CCCC1` [Compound 591], the IC50 is less than 0.1 µM.

As to `CNc1ccnc(NC2(C)CCNCC2)n1` [Compound 547, N^4-methyl-N^2-(4-methylpiperidin-4-yl)pyrimidine-2,4-diamine], the IC50 is greater than 10 µM.

Turning to `COc1cc(NC2CCNCC2)ccc1OCCCN1CCCC1` [Compound 579], the IC50 was in the range of 1 to 10 µM.

Turning to `CCN1CC[C@@H](COc2cc(Nc3nc(C)cc(NC)n3)cnc2OC)C1` [Compound 599], the IC50 was less than 0.1 µM.

As to `CCN1CC(C(C#N)Oc2cc(Nc3nc(C)cc(NC)n3)ccc2OC)C1` (stereo not shown) [Compound 562], the IC50 lay in the range of 1 to 10 µM.

Take `CCCCN1CCC(C)(Nc2nccc(NC)n2)CC1` [Compound 550, N^2-(1-butyl-4-methylpiperidin-4-yl)-N^4-methylpyrimidine-2,4-diamine]: the IC50 was greater than 10 µM.

On to `CCN1CC(C(O)Oc2cc(Nc3nc(C)cc(NC)n3)ccc2OC)C1` (stereo not shown) [Compound 560], for which the IC50 is 0.1 to 1 µM.

`CNc1cc(C)nc(Nc2ccc(OC)c(OCC3CN(C4CCCC4)C3)c2)n1` [Compound 577]: the concentration for half-maximal inhibition (IC50) is 0.1 to 1 µM.

With `CNc1cc(C)nc(Nc2cnc(OC)c(OC[C@H]3CCN(C4CC4)C3)c2)n1` [Compound 558], the IC50 is less than 0.1 µM.

On to `COc1cnc(Nc2cc(C)nc3[nH]ncc23)cc1OCCCN1CCCC1` [Compound 596], for which the IC50 lay in the range of 1 to 10 µM.

Consider `CNc1cc(C)nc(Nc2ccc(OC)c(OC[C@@H]3CCNC3)c2)n1` [Compound 600], for which the IC50 was less than 0.1 µM.

In the case of `CNc1cc(C)nc(Nc2ccc(OC)c(O)c2)n1` [Compound 561], the IC50 was greater than 10 µM.

Turning to `COc1ccc(Nc2nc(C)cc(NCC3CCOCC3)n2)cc1OCCCN1CCCC1` [Compound 590], the IC50 was less than 0.1 µM.

As to `C/C=C/C(=O)Nc1ccc(OC)c(OCCCN2CCCC2)c1` [Compound 598], the IC50 was greater than 10 µM.

Turning to `CCCC1(Nc2nccc(NC)n2)CCCNC1` (stereo not shown) [Compound 544], the half-inhibitory concentration (IC50) was greater than 10 µM.

Take `CNc1cc(C)nc(Nc2ccc(OC)c(OCC3CN(C(C)C)C3)c2)n1` [Compound 575]: the IC50 fell in the range of 0.1 to 1 µM.

Turning to `COc1ncc(Nc2nc(C)cc(NCC3CCOCC3)n2)cc1OC[C@@H]1CCN(C2CCC2)C1` [Compound 594], the IC50 is less than 0.1 µM.

Take `COc1cc2c(C3CCN(C)CC3)nc(N(C)C)nc2cc1OCCCN1CCCC1` [Compound 587]: the IC50 was less than 0.1 µM.

As for `CNc1ccnc(NC2CCCNC2)n1` (stereo not shown) [Compound 541, N^4-methyl-N^2-(piperidin-3-yl)pyrimidine-2,4-diamine], the IC50 is greater than 10 µM.

Turning to `CCN1CC(COc2cc(Nc3cc(NC)ncc3F)ncc2OC)C1` [Compound 566], the IC50 is 1 to 10 µM.

Consider `c1nc(NC2CCNCC2)ncc1OCCCN1CCCC1` [Compound 552], for which the IC50 is greater than 10 µM.
